Consider 17 molecules from US9765034B2, “5-halogenopyrazole biphenylcarboxamides” (BAYER CROPSCIENCE AG, priority 2012, dated 2017).

For series [1], the system named is Sphaerotheca fuliginea. The experiment in a line: In vivo preventive test on Sphaerotheca fuliginea (powdery mildew on cucurbits). The note with it: gherkin plants, preventive spray, 500 ppm, grading 12 days after contamination. As to the method: Example: In Vivo Preventive Test on Sphaerotheca fuliginea (Powdery Mildew on Cucurbits) […] Gherkin plants (“Vert petit de Paris” variety), sown in starter cups on a 50/50 peat soil-pozzolana substrate and grown at 24° C., are treated at the Z11 cotyledon stage by spraying with the active ingredient prepared as described above. Plants, used as controls, are treated with the mixture of acetone/tween/DMSO/water not containing the active material. After 24 hours, the plants are contaminated by spraying the cotyledons with an aqueous suspension of Sphaerotheca fuliginea spores (100 000 spores per ml). The spores are collected from infected plants. […] Grading (% of efficacy) is carried out 12 days after the contamination, in comparison with the control plants. Under these conditions, good (at least 70%) or total protection is observed at a dose of 500 ppm with the following compounds: […]

The test system of series [2] is Puccinia recondita. The experiment in a line: In vivo preventive test on Puccinia recondita (brown rust on wheat). To be noted: wheat plants, preventive spray, 500 ppm, grading 12 days after contamination. On the procedure:
Example: In Vivo Preventive Test on Puccinia recondita (Brown Rust on Wheat) […] Wheat plants (“Scipion” variety), sown in starter cups on a 50/50 peat soil-pozzolana substrate and grown at 22° C., are treated at the 1-leaf stage (10 cm height) by spraying with the active ingredient prepared as described above. Plants, used as controls, are treated with the mixture of acetone/tween/DMSO/water not containing the active material. After 24 hours, the plants are contaminated by spraying the leaves with an aqueous suspension of Puccinia […] spores (100 000 spores per ml). […] Grading (% of efficacy) is carried out 12 days after the contamination, in comparison with the control plants. Under these conditions, good (at least 70%) or total protection is observed at a dose of 500 ppm with the following compounds: […]

Series [3] can be described thus: logP by HPLC on reversed phase columns (EEC directive 79/831 Annex V.A8). To be noted: method [a]: LC-MS at pH 2.7, 0.1% formic acid in water / acetonitrile gradient 10% to 95%.
In series [4] the test system is Uromyces appendiculatus. The experiment in a line: In vivo preventive test on Uromyces appendiculatus (bean rust). The note with it: bean plants, preventive spray, 500 ppm, grading 11 days after contamination. On the procedure: Example: In Vivo Preventive Test on Uromyces appendiculatus (Bean Rust) […] Bean plants (“Saxa” variety), sown in starter cups on a 50/50 peat soil-pozzolana substrate and grown at 24° C., are treated at the 2-leaf stage (9 cm height) by spraying with the active ingredient prepared as described above. Plants, used as controls, are treated with the mixture of acetone/tween/DMSO/water not containing the active material. After 24 hours, the plants are contaminated by spraying the leaves with an aqueous suspension of Uromyces appendiculatus spores (150 000 spores per ml). […] Grading (% of efficacy) is carried out 11 days after the contamination, in comparison with the control plants. Under these conditions, good (at least 70%) or total protection is observed at a dose of 500 ppm with the following compounds: […]

In series [5] the test system is Pyrenophora teres. Nature of the series: In vivo preventive test on Pyrenophora teres (net blotch on barley). The note with it: barley plants, preventive spray, 500 ppm, grading 14 days after contamination. On the procedure:
Example: In Vivo Preventive Test on Pyrenophora teres (Net Blotch on Barley) […] Barley plants (“Plaisant” variety), sown in starter cups on a 50/50 peat soil-pozzolana substrate and grown at 22° C., are treated at the 1-leaf stage (10 cm height) by spraying with the active ingredient prepared as described above. Plants, used as controls, are treated with the mixture of acetone/tween/DMSO/water not containing the active material. After 24 hours, the plants are contaminated by spraying the leaves with an aqueous suspension of Pyrenophora teres spores (12 000 spores per ml). The spores are collected from a 12-day-old culture. […] Grading (% of efficacy) is carried out 14 days after the contamination, in comparison with the control plants. Under these conditions, good (at least 70%) or total protection is observed at a dose of 500 ppm with the following compounds: […]

Series [6] deals with Alternaria brassicae. Nature of the series: In vivo preventive test on Alternaria brassicae (leaf spot on radish). The note with it: radish plants, preventive spray, 500 ppm, grading 6 days after contamination. As to the method:
Example: In Vivo Preventive Test on Alternaria brassicae (Leaf Spot on Radish) […] Radish plants (“Pernod Clair” variety), sown in starter cups on a 50/50 peat soil-pozzolana substrate and grown at 17° C., are treated at the cotyledon stage by spraying with the active ingredient prepared as described above. Plants, used as controls, are treated with the mixture of acetone/tween/DMSO/water not containing the active material. After 24 hours, the plants are contaminated by spraying the cotyledons with an aqueous suspension of Alternaria brassicae spores (50 000 spores per ml). The spores are collected from a 15-day-old culture. […] Grading (% of efficacy) is carried out 6 days after the contamination, in comparison with the control plants. Under these conditions, good (at least 70%) or total protection is observed at a dose of 500 ppm with the following compounds: […]

Series [7] concerns Botrytis cinerea. The experiment in a line: In vivo preventive test on Botrytis cinerea (grey mould). The note with it: gherkin plants, preventive spray, 500 ppm, grading 4 to 5 days after contamination. As to the method: Example: In Vivo Preventive Test on Botrytis cinerea (Grey Mould) […] Gherkin plants (“Vert petit de Paris” variety), sown in starter cups on a 50/50 peat soil-pozzolana substrate and grown at 24° C., are treated at the Z11 cotyledon stage by spraying with the active ingredient prepared as described above. Plants, used as controls, are treated with the mixture of acetone/tween/DMSO/water not containing the active material. After 24 hours, the plants are contaminated by spraying the cotyledons with an aqueous suspension of cryopreserved Botrytis cinerea spores (50 000 spores per ml). The spores are suspended in a nutrient solution composed of 10 g/L of PDB, 50 g/L of D-Fructose, 2 g/L of NH4NO3 and 1 g/L of KH2PO4. […] Grading (% of efficacy) is carried out 4 to 5 days after the contamination, in comparison with the control plants. Under these conditions, good (at least 70%) or total protection is observed at a dose of 500 ppm with the following compounds: […]

For `CCON=C(C)c1ccc(-c2ccccc2NC(=O)c2c(C(F)F)nn(C)c2Cl)cc1` [Example 2], the Eff. % in series [1] was determined as 100%; in series [2] it was 98%; in series [4], 100%. The logP in series [3] is 4.58[a].

For the molecule `CON=Cc1ccc(-c2ccccc2NC(=O)c2c(C(F)F)nn(C)c2Cl)c(Cl)c1` [Example 10], the results for the Eff. % in series [1], in series [2] and in series [4] were 100%, 97% and 100%, respectively. The logP in series [3] is 4.05[a].

Turning to `CCON=C(C)c1ccc(-c2ccccc2NC(=O)c2c(C(F)F)nn(C)c2F)cc1` [Example 11], the Eff. % in series [5] amounted to 96%; in series [1], 100%; in series [2], 94%; in series [4], 100%; in series [6], 97%. Besides, the logP in series [3] is 4.24[a].

Consider `CCON=Cc1c(F)cc(-c2ccccc2NC(=O)c2c(C(F)F)nn(C)c2Cl)cc1F` [Example 14], for which the Eff. % is recorded as 100% in series [5]; 100% in series [1]; 100% in series [2]; 100% in series [4]; 70% in series [7]; 100% in series [6]. In addition, the logP in series [3] was 4.04[a].

In the case of `CCON=C(C)c1ccc(-c2ccccc2NC(=O)c2c(C(F)F)nn(C)c2F)cc1` [Example 16], the Eff. % was 79% in series [5]; 94% in series [2]; 100% in series [4]; 80% in series [7]; 100% in series [6]. In addition, the logP in series [3] was 4.29[a].

As for `CCON=Cc1ccc(-c2ccccc2NC(=O)c2c(C(F)F)nn(C)c2Cl)cc1Cl` [Example 17], the Eff. % in series [5] is 96%; in series [1], 100%; in series [2] it was 97%; in series [4], 100%; in series [6], 98%. The logP in series [3] was 4.64[a].

In the case of `CCON=Cc1ccc(-c2cc(F)ccc2NC(=O)c2c(C(F)F)nn(C)c2Cl)cc1` [Example 19], the Eff. % is 80% in series [5]; 100% in series [1]; 97% in series [2]; 100% in series [4]; 70% in series [7]; 88% in series [6]. Besides, the logP in series [3] was 4.11[a].

In the case of `CCON=Cc1ccc(-c2ccccc2NC(=O)c2c(C(F)F)nn(C)c2Cl)cc1C(F)(F)F` [Example 26], the Eff. % in series [5] worked out at 90%; in series [1], 100%; in series [2], 97%; in series [4] it was 100%. Also, in series [3], the logP is 4.65[a].

With `CON=Cc1ccc(-c2ccccc2NC(=O)c2c(C(F)F)nn(C)c2Cl)cc1F` [Example 33], the Eff. % in series [5] is 96%; in series [1], 100%; in series [2], 100%; in series [4], 99%; in series [7], 95%; in series [6] it was 88%. For the same molecule, in series [3], the logP is 3.75[a].

Turning to `CCON=C(C)c1ccc(-c2ccccc2NC(=O)c2c(C(F)F)nn(C)c2Cl)cc1` [Example 34], the Eff. % in series [5] was 80%; in series [2], 89%; in series [4], 100%. In addition, the logP in series [3] was 4.49[a].

As to `CCON=Cc1ccc(-c2ccccc2NC(=O)c2c(C(F)F)nn(C)c2Cl)c(Cl)c1` [Example 36], the Eff. % amounted to 90% in series [5]; 100% in series [1]; 97% in series [2]; 94% in series [4]; 95% in series [7]; 81% in series [6]. Also, the logP in series [3] is 4.49[a].

Take `CCON=Cc1ccc(-c2ccccc2NC(=O)c2c(C(F)F)nn(C)c2Cl)c(F)c1` [Example 37]: the Eff. % in series [5] is 100%; in series [1] it was 100%; in series [2] it was 97%; in series [4], 97%; in series [7], 100%; in series [6], 88%. The logP in series [3] was 3.65[a].

Turning to `CON=Cc1ccc(-c2ccccc2NC(=O)c2c(C(F)F)nn(C)c2Cl)cc1Cl` [Example 38], the Eff. % in series [5] came out at 96%; in series [1], 100%; in series [2] it was 97%; in series [4], 100%; in series [6], 94%. The logP in series [3] was 4.19[a].

For the molecule `CON=C(C)c1cccc(-c2cccc(NC(=O)c3c(C(F)F)nn(C)c3F)c2)c1` [Example 42], the Eff. % is 70% in series [5], 89% in series [2] and 97% in series [4]. The logP in series [3] was 3.85[a].

With `CCON=C(C)c1cccc(-c2cccc(NC(=O)c3c(C(F)F)nn(C)c3Cl)c2)c1` [Example 43], the Eff. % in series [5] was 80%; in series [2] it was 89%; in series [4], 100%. For the same molecule, the logP in series [3] is 4.49[a].

In the case of `CCON=C(C)c1cccc(-c2cccc(NC(=O)c3c(C(F)F)nn(C)c3F)c2)c1` [Example 44], the Eff. % in series [5] is reported as 79%; in series [2] it was 94%; in series [4], 100%; in series [7] it was 80%; in series [6], 100%. The logP in series [3] is 4.29[a].

Take `CON=C(C)c1cccc(-c2cccc(NC(=O)c3c(C(F)F)nn(C)c3Cl)c2)c1` [Example 45]: the Eff. % came out at 80% in series [5], 94% in series [2] and 100% in series [4]. In addition, the logP in series [3] was 4.04[a].
